# Patent publication US20240116985A1, “STAPLED PEPTIDES AND METHODS THEREOF” (priority 2020, published 2024)
# pIC50: −log10 of the molar value. Read-outs that look alike come from different tables or passages of the source.
# Assays:
# [1] = target: T1, beta-catenin/TCF4 engagement (Homo sapiens, UniProt P35222); assay: Nano-BRET target engagement assay (B-cat-Halo & TCF4-Luc in HEK293 cells); format: cell-based; settings: read-out: NanoBRET Abs IC50
# T1 construct: expressed in transfected cells; host or cells: HEK293
# T1 sequence (P35222 1-781): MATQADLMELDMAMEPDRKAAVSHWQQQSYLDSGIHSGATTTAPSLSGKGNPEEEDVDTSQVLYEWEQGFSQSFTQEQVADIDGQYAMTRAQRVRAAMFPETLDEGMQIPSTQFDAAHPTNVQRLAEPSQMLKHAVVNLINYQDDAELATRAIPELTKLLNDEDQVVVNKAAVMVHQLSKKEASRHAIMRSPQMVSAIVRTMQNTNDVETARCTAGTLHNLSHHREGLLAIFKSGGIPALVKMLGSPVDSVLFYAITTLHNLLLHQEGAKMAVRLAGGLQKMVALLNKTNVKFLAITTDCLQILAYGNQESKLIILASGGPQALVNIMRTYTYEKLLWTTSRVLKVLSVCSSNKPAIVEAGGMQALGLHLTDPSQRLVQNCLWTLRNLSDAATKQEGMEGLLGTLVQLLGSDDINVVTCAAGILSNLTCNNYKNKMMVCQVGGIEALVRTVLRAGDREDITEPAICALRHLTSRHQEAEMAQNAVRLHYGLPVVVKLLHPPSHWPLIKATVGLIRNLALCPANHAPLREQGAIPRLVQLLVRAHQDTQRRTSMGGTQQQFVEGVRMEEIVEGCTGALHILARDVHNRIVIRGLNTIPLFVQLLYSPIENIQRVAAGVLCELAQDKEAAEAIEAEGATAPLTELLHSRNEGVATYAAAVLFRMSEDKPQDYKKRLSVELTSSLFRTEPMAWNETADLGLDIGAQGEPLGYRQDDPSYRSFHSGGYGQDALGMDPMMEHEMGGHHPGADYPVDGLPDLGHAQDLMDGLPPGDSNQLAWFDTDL
# [2] = target: T2, full-length beta-Catenin (Uniprot ID P35222) (Homo sapiens, UniProt P35222); assay: Fluorescence polarization IC50 (beta-catenin / 5FAM-TCF4 10-53 competition); format: binding; settings: fluorescence polarization; read-out: beta-Catenin FP IC50
# T2 construct: 10 nM full-length beta-Catenin (Uniprot ID P35222)
# T2 sequence (P35222 1-781): T1 sequence (P35222 1-781)
SMILES,pIC50 ([1]; absolute IC50),pIC50 [2],pIC50 [1]
"CC(=O)N1CCC[C@]12CC=CCCCC1(CCCC=CCCCOC(=O)N3CC[C@@](C(=O)N[C@@H](Cc4ccsc4)C(=O)N[C@@H](Cc4csc5ccccc45)C(=O)N[C@@H](CCC(N)=O)C(N)=O)(C3)NC(=O)[C@H](CC(C)C)NC(=O)[C@H](Cc3ccccc3)NC(=O)[C@H](C)NC(=O)[C@H](C)NC(=O)[C@H](CCNCC(=O)O)NC(=O)[C@H](CC(=O)O)NC1=O)NC(=O)[C@H](CC(C)(C)C)NC(=O)[C@H](CC(=O)O)NC2=O (stereo partly drawn) [I-1841, Ac-PL3-Asp-Npg-B5-Asp-GAbu-Ala-Ala-Phe-Leu-PyrS2-3Thi-BztA-Gln-NH2]",< 4.70,7.12,–
"CC(=O)N1CCC[C@]12CC=CCCCC1(CCCC=CCCCOC(=O)N3CC[C@@](C(=O)N[C@@H](Cc4ccsc4)C(=O)N[C@@H](Cc4csc5ccccc45)C(=O)N[C@@H](CCC(N)=O)C(N)=O)(C3)NC(=O)[C@H](CC(C)C)NC(=O)[C@H](Cc3ccccc3)NC(=O)[C@H](C)NC(=O)[C@H](C)NC(=O)[C@H](CNc3ccc([N+](=O)[O-])cc3C(=O)O)NC(=O)[C@H](CC(=O)O)NC1=O)NC(=O)[C@H](CC(C)(C)C)NC(=O)[C@H](CC(=O)O)NC2=O (stereo partly drawn) [I-1843, Ac-PL3-Asp-Npg-B5-Asp-[2COOH4NO2Ph]Dap-Ala-Ala-Phe-Leu-PyrS2-3Thi-BztA-Gln-NH2]",5.02,7.49,–
"CC(=O)N1CCC[C@]12CC=CCCCC1(CCCC=CCCCOC(=O)N3CC[C@@](C(=O)N[C@@H](Cc4ccsc4)C(=O)N[C@@H](Cc4csc5ccccc45)C(=O)N[C@@H](CCC(N)=O)C(N)=O)(C3)NC(=O)[C@H](CC(C)C)NC(=O)[C@H](Cc3ccccc3)NC(=O)[C@H](C)NC(=O)[C@H](C)NC(=O)[C@H](CNc3ncccc3C(=O)O)NC(=O)[C@H](CC(=O)O)NC1=O)NC(=O)[C@H](CC(C)(C)C)NC(=O)[C@H](CC(=O)O)NC2=O (stereo partly drawn) [I-1845, Ac-PL3-Asp-Npg-B5-Asp-[2Nic]Dap-Ala-Ala-Phe-Leu-PyrS2-3Thi-BztA-Gln-NH2]",5.20,7.52,–
"CC(=O)N1CC2CC1C(=O)N[C@@H](CC(=O)O)C(=O)N[C@@H](CC(C)(C)C)C(=O)NC1(CCCC=CCCCOC(=O)N3CC[C@@](C(=O)N[C@@H](Cc4ccccc4Cl)C(=O)N[C@@H](Cc4csc5ccccc45)C(=O)N[C@@H](CCC(N)=O)C(N)=O)(C3)NC(=O)[C@H]([C@@H](C)O)NC(=O)[C@H](Cc3ccccc3)NC(=O)[C@H](C)NC(=O)[C@H](C)NC(=O)[C@H](CN(CC(=O)O)CC(F)(F)F)NC(=O)[C@H](CC(=O)O)NC1=O)CCCC=CCCC(=O)O2 (stereo partly drawn) [I-1846, Ac-HyPEs5-Asp-Npg-B5-Asp-TfeGA-Ala-Ala-Phe-Thr-PyrS2-2C1F-BztA-Gln-NH2]",4.53,7.42,–
"CC(=O)N1CCC[C@]12CC=CCCCC1(CCCC=CCCCOC(=O)N3CC[C@@](C(=O)N[C@@H](Cc4ccccc4Cl)C(=O)N[C@@H](Cc4csc5ccccc45)C(N)=O)(C3)NC(=O)[C@H](CC(C)C)NC(=O)[C@H](Cc3ccccc3)NC(=O)[C@H](C)NC(=O)[C@H](C)NC(=O)[C@H](Cc3cccc(C(=O)O)c3)NC(=O)[C@H](CC(=O)O)NC1=O)NC(=O)[C@H](CC(C)(C)C)NC(=O)[C@H](CC(=O)O)NC2=O (stereo partly drawn) [I-1852, Ac-PL3-Asp-Npg-B5-Asp-3COOHF-Ala-Ala-Phe-Leu-PyrS2-2C1F-BztA-NH2]",–,7.32,5.31
"CC(=O)N1CCC[C@]12CC=CCCCC1(CCCC=CCCCOC(=O)N3CC[C@@](C(=O)N[C@@H](Cc4ccsc4)C(=O)N[C@@H](Cc4csc5ccccc45)C(=O)N[C@@H](CCC(N)=O)C(N)=O)(C3)NC(=O)[C@H](Cn3cc(CN(C)C)nn3)NC(=O)[C@H](Cc3ccccc3)NC(=O)[C@H](C)NC(=O)[C@H](C)NC(=O)[C@H](CN(CC(=O)O)CC(F)(F)F)NC(=O)[C@H](CC(=O)O)NC1=O)NC(=O)[C@H](CC(C)(C)C)NC(=O)[C@H](CC(=O)O)NC2=O (stereo partly drawn) [I-1861, Ac-PL3-Asp-Npg-B5-Asp-TfeGA-Ala-Ala-Phe-[CH2NMe2]TriAzDap-PyrS2-3Thi-BztA-Gln-NH2]",–,7.85,4.43
"CC(=O)N1CCC[C@]12CC=CCCCC1(CCCC=CCCCOC(=O)N3CC[C@@](C(=O)N[C@@H](Cc4ccsc4)C(=O)N[C@@H](Cc4csc5ccccc45)C(=O)N[C@@H](CCC(N)=O)C(N)=O)(C3)NC(=O)[C@H](Cn3cc(CN(C)C)nn3)NC(=O)[C@H](Cc3ccccc3)NC(=O)[C@H](C)NC(=O)[C@H](C)NC(=O)[C@H](CN(CC(=O)O)CC(F)(F)F)NC(=O)[C@H](CC(=O)O)NC1=O)NC(=O)[C@H](CC(C)(C)C)NC(=O)[C@H](CC(=O)O)NC2=O (stereo partly drawn) [I-1862, Ac-PL3-Asp-Npg-B5-Asp-TfeGA-Ala-Ala-Phe-[CH2NMe2]TriAzDap-PyrS2-3Thi-BztA-Gln-NH2]",–,8.00,4.71
"CC(=O)N1CCC[C@]12CC=CCCCC1(CCCC=CCCCOC(=O)N3CC[C@@](C(=O)N[C@@H](Cc4ccsc4)C(=O)N[C@@H](Cc4csc5ccccc45)C(=O)N[C@@H](CCC(N)=O)C(N)=O)(C3)NC(=O)[C@H](Cn3cc(CN4CCNCC4)nn3)NC(=O)[C@H](Cc3ccccc3)NC(=O)[C@H](C)NC(=O)[C@H](C)NC(=O)[C@H](CN(CC(=O)O)CC(F)(F)F)NC(=O)[C@H](CC(=O)O)NC1=O)NC(=O)[C@H](CC(C)(C)C)NC(=O)[C@H](CC(=O)O)NC2=O (stereo partly drawn) [I-1864, Ac-PL3-Asp-Npg-B5-Asp-TfeGA-Ala-Ala-Phe-[CH2Ppz]TriAzDap-PyrS2-3Thi-BztA-Gln-NH2]",–,7.85,< 4.70
"CC(=O)N1CCC[C@]12CC=CCCCC1(CCCC=CCCCOC(=O)N3CC[C@@](C(=O)N[C@@H](Cc4ccsc4)C(=O)N[C@@H](Cc4csc5ccccc45)C(=O)N[C@@H](CCC(N)=O)C(N)=O)(C3)NC(=O)[C@H](Cn3cc(CN4CCOCC4)nn3)NC(=O)[C@H](Cc3ccccc3)NC(=O)[C@H](C)NC(=O)[C@H](C)NC(=O)[C@H](CN(CC(=O)O)CC(F)(F)F)NC(=O)[C@H](CC(=O)O)NC1=O)NC(=O)[C@H](CC(C)(C)C)NC(=O)[C@H](CC(=O)O)NC2=O (stereo partly drawn) [I-1865, Ac-PL3-Asp-Npg-B5-Asp-TfeGA-Ala-Ala-Phe-[MorphCH2]TriAzDap-PyrS2-3Thi-BztA-Gln-NH2]",–,8.00,< 4.70

# Other lines, results leading:
pIC50 ([1]; absolute IC50),pIC50 [2],pIC50 [1],SMILES
–,7.72,5.06,"CC(=O)N1CCC[C@]12CC=CCCCC1(CCCC=CCCCOC(=O)N3CC[C@@](C(=O)N[C@@H](Cc4ccccc4Cl)C(=O)N[C@@H](Cc4csc5ccccc45)C(=O)N[C@@H](CO)C(N)=O)(C3)NC(=O)[C@H](C)NC(=O)[C@H](Cc3ccccc3)NC(=O)[C@H](C)NC(=O)[C@H](C)NC(=O)[C@H](Cc3cccc(C(=O)O)c3)NC(=O)[C@H](CC(=O)O)NC1=O)NC(=O)[C@H](CC(C)(C)C)NC(=O)[C@H](CC(=O)O)NC2=O (stereo partly drawn) [I-1849, Ac-PL3-Asp-Npg-B5-Asp-3COOHF-Ala-Ala-Phe-Ala-PyrS2-2C1F-BztA-Ser-NH2]"
–,7.77,5.42,"CC(=O)N1CCC[C@]12CC=CCCCC1(CCCC=CCCCOC(=O)N3CC[C@@](C(=O)N[C@@H](Cc4ccccc4Cl)C(=O)N[C@@H](Cc4csc5ccccc45)C(=O)N[C@@H](CO)C(N)=O)(C3)NC(=O)[C@H](C(C)C)NC(=O)[C@H](Cc3ccccc3)NC(=O)[C@H](C)NC(=O)[C@H](C)NC(=O)[C@H](Cc3cccc(C(=O)O)c3)NC(=O)[C@H](CC(=O)O)NC1=O)NC(=O)[C@H](CC(C)(C)C)NC(=O)[C@H](CC(=O)O)NC2=O (stereo partly drawn) [I-1850, Ac-PL3-Asp-Npg-B5-Asp-3COOHF-Ala-Ala-Phe-Val-PyrS2-2C1F-BztA-Ser-NH2]"
–,7.60,5.42,"CC(=O)N1CCC[C@]12CC=CCCCC1(CCCC=CCCCOC(=O)N3CC[C@@](C(=O)N[C@@H](Cc4ccccc4Cl)C(=O)N[C@@H](Cc4csc5ccccc45)C(=O)N[C@@H](C)C(N)=O)(C3)NC(=O)[C@H](CC(C)C)NC(=O)[C@H](Cc3ccccc3)NC(=O)[C@H](C)NC(=O)[C@H](C)NC(=O)[C@H](Cc3cccc(C(=O)O)c3)NC(=O)[C@H](CC(=O)O)NC1=O)NC(=O)[C@H](CC(C)(C)C)NC(=O)[C@H](CC(=O)O)NC2=O (stereo partly drawn) [I-1851, Ac-PL3-Asp-Npg-B5-Asp-3COOHF-Ala-Ala-Phe-Leu-PyrS2-2C1F-BztA-Ala-NH2]"
–,6.94,4.79,"CC(=O)N1CCC[C@]12CC=CCCCC1(CCCC=CCCCOC(=O)N3CC[C@@](C(=O)N[C@@H](Cc4ccccc4Cl)C(=O)N[C@@H](Cc4csc5ccccc45)C(=O)N[C@@H](CO)C(N)=O)(C3)NC(=O)[C@H](CC(C)C)NC(=O)[C@H](Cc3ccccc3)NC(=O)[C@H](C)NC(=O)[C@H](C)NC(=O)[C@H](Cc3cccc(C(=O)O)c3)NC(=O)[C@H](CC(=O)O)NC1=O)NC(=O)[C@H](CC(C)(C)C)NC(=O)[C@H](CC(N)=O)NC2=O (stereo partly drawn) [I-1853, Ac-PL3-Asn-Npg-B5-Asp-3COOHF-Ala-Ala-Phe-Leu-PyrS2-2C1F-BztA-Ser-NH2]"
